{"source": "PubChem BioAssay (NCI)", "assay_in_all_cases": "DTP human tumour cell line panel, 48 h", "key": {"HCT-15 colon": {"system": "HCT-15 colon"}, "SF-539 CNS": {"system": "SF-539 CNS"}, "OVCAR-4 ovarian": {"system": "OVCAR-4 ovarian"}, "SK-OV-3 ovarian": {"system": "SK-OV-3 ovarian"}, "MALME-3M melanoma": {"system": "MALME-3M melanoma"}, "HCC-2998 colon": {"system": "HCC-2998 colon"}, "786-0 renal": {"system": "786-0 renal"}, "HT29 colon": {"system": "HT29 colon"}, "NCI-H226 lung": {"system": "NCI-H226 lung"}, "SNB-75 CNS": {"system": "SNB-75 CNS"}}, "note": "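Compound exposure: 48 hours, 5 concentrations, 96-well plates. The concentration for 50% growth inhibition is given as GI50. TGI marks complete inhibition of growth.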", "data": [{"smiles": "Cn1c(=O)c(N=Nc2c(=O)n(C)c(=O)n3c2[nH]c2ccccc23)c2[nH]c3ccccc3n2c1=O", "values": [{"measurement": "TGI", "setting": "HCT-15 colon", "result": "> 100", "unit": "µM"}, {"measurement": "TGI", "setting": "SF-539 CNS", "result": "> 100", "unit": "µM"}, {"measurement": "TGI", "setting": "OVCAR-4 ovarian", "result": "> 100", "unit": "µM"}, {"measurement": "TGI", "setting": "SK-OV-3 ovarian", "result": "> 100", "unit": "µM"}, {"measurement": "TGI", "setting": "MALME-3M melanoma", "result": "> 100", "unit": "µM"}, {"measurement": "TGI", "setting": "HCC-2998 colon", "result": "> 100", "unit": "µM"}, {"measurement": "TGI", "setting": "786-0 renal", "result": "> 100", "unit": "µM"}, {"measurement": "TGI", "setting": "HT29 colon", "result": "> 100", "unit": "µM"}, {"measurement": "TGI", "setting": "NCI-H226 lung", "result": "> 100", "unit": "µM"}, {"measurement": "TGI", "setting": "SNB-75 CNS", "result": 91.6, "unit": "µM"}]}, {"smiles": "O=c1ncccn1[C@@H]1O[C@H](CO)[C@H](O)C1O", "note": "(stereo partly drawn)", "values": [{"measurement": "TGI", "setting": "HCT-15 colon", "result": "> 100", "unit": "µM"}, {"measurement": "TGI", "setting": "SF-539 CNS", "result": "> 100", "unit": "µM"}, {"measurement": "TGI", "setting": "OVCAR-4 ovarian", "result": "> 100", "unit": "µM"}, {"measurement": "TGI", "setting": "SK-OV-3 ovarian", "result": "> 100", "unit": "µM"}, {"measurement": "TGI", "setting": "MALME-3M melanoma", "result": "> 100", "unit": "µM"}, {"measurement": "TGI", "setting": "HCC-2998 colon", "result": "> 100", "unit": "µM"}, {"measurement": "TGI", "setting": "786-0 renal", "result": "> 100", "unit": "µM"}, {"measurement": "TGI", "setting": "HT29 colon", "result": "> 100", "unit": "µM"}, {"measurement": "TGI", "setting": "NCI-H226 lung", "result": "> 100", "unit": "µM"}, {"measurement": "TGI", "setting": "SNB-75 CNS", "result": "> 100", "unit": "µM"}]}, {"smiles": "CO/N=C(\\COc1ccc2c(c1)[nH]c1ccccc12)c1ccc(OC)cc1", "values": [{"measurement": "GI50", "setting": "HCT-15 colon", "result": "> 100", "unit": "µM"}, {"measurement": "TGI", "setting": "HCT-15 colon", "result": "> 100", "unit": "µM"}, {"measurement": "GI50", "setting": "SF-539 CNS", "result": 13.8, "unit": "µM"}, {"measurement": "TGI", "setting": "SF-539 CNS", "result": "> 100", "unit": "µM"}, {"measurement": "GI50", "setting": "OVCAR-4 ovarian", "result": 10.5, "unit": "µM"}, {"measurement": "TGI", "setting": "OVCAR-4 ovarian", "result": "> 100", "unit": "µM"}, {"measurement": "GI50", "setting": "SK-OV-3 ovarian", "result": 34.6, "unit": "µM"}, {"measurement": "TGI", "setting": "SK-OV-3 ovarian", "result": "> 100", "unit": "µM"}, {"measurement": "GI50", "setting": "MALME-3M melanoma", "result": 9.71, "unit": "µM"}, {"measurement": "TGI", "setting": "MALME-3M melanoma", "result": 74.6, "unit": "µM"}, {"measurement": "GI50", "setting": "HCC-2998 colon", "result": "> 100", "unit": "µM"}, {"measurement": "TGI", "setting": "HCC-2998 colon", "result": "> 100", "unit": "µM"}, {"measurement": "GI50", "setting": "786-0 renal", "result": 7.18, "unit": "µM"}, {"measurement": "TGI", "setting": "786-0 renal", "result": "> 100", "unit": "µM"}, {"measurement": "GI50", "setting": "HT29 colon", "result": 4.36, "unit": "µM"}, {"measurement": "TGI", "setting": "HT29 colon", "result": "> 100", "unit": "µM"}, {"measurement": "GI50", "setting": "NCI-H226 lung", "result": "> 100", "unit": "µM"}, {"measurement": "TGI", "setting": "NCI-H226 lung", "result": "> 100", "unit": "µM"}, {"measurement": "GI50", "setting": "SNB-75 CNS", "result": 6.66, "unit": "µM"}, {"measurement": "TGI", "setting": "SNB-75 CNS", "result": "> 100", "unit": "µM"}]}, {"smiles": "C=C(c1ccccc1)C1(O)CCCCC1N", "note": "(stereo not drawn)", "values": [{"measurement": "TGI", "setting": "HCT-15 colon", "result": "> 100", "unit": "µM"}, {"measurement": "TGI", "setting": "SF-539 CNS", "result": "> 100", "unit": "µM"}, {"measurement": "TGI", "setting": "OVCAR-4 ovarian", "result": "> 100", "unit": "µM"}, {"measurement": "TGI", "setting": "SK-OV-3 ovarian", "result": "> 100", "unit": "µM"}, {"measurement": "TGI", "setting": "MALME-3M melanoma", "result": "> 100", "unit": "µM"}, {"measurement": "TGI", "setting": "HCC-2998 colon", "result": "> 100", "unit": "µM"}, {"measurement": "TGI", "setting": "786-0 renal", "result": "> 100", "unit": "µM"}, {"measurement": "TGI", "setting": "HT29 colon", "result": "> 100", "unit": "µM"}, {"measurement": "TGI", "setting": "NCI-H226 lung", "result": "> 100", "unit": "µM"}, {"measurement": "TGI", "setting": "SNB-75 CNS", "result": "> 100", "unit": "µM"}]}, {"smiles": "CN(C(=O)/C=C/c1ccccc1)C1C2CN3CCC(O2)C13", "note": "(stereo not drawn)", "values": [{"measurement": "TGI", "setting": "HCT-15 colon", "result": "> 100", "unit": "µM"}, {"measurement": "TGI", "setting": "SF-539 CNS", "result": "> 100", "unit": "µM"}, {"measurement": "TGI", "setting": "OVCAR-4 ovarian", "result": "> 100", "unit": "µM"}, {"measurement": "TGI", "setting": "SK-OV-3 ovarian", "result": "> 100", "unit": "µM"}, {"measurement": "TGI", "setting": "MALME-3M melanoma", "result": "> 100", "unit": "µM"}, {"measurement": "TGI", "setting": "HCC-2998 colon", "result": "> 100", "unit": "µM"}, {"measurement": "TGI", "setting": "786-0 renal", "result": "> 100", "unit": "µM"}, {"measurement": "TGI", "setting": "HT29 colon", "result": "> 100", "unit": "µM"}, {"measurement": "TGI", "setting": "NCI-H226 lung", "result": "> 100", "unit": "µM"}, {"measurement": "TGI", "setting": "SNB-75 CNS", "result": "> 100", "unit": "µM"}]}, {"smiles": "Cc1c(OC(C)C(=O)O)ccc2c(-c3ccccc3)cc(=O)oc12", "note": "(stereo not drawn)", "values": [{"measurement": "TGI", "setting": "SF-539 CNS", "result": "> 100", "unit": "µM"}, {"measurement": "TGI", "setting": "OVCAR-4 ovarian", "result": "> 100", "unit": "µM"}, {"measurement": "TGI", "setting": "SK-OV-3 ovarian", "result": "> 100", "unit": "µM"}, {"measurement": "TGI", "setting": "MALME-3M melanoma", "result": "> 100", "unit": "µM"}, {"measurement": "TGI", "setting": "HCC-2998 colon", "result": "> 100", "unit": "µM"}, {"measurement": "TGI", "setting": "786-0 renal", "result": "> 100", "unit": "µM"}, {"measurement": "TGI", "setting": "HT29 colon", "result": "> 100", "unit": "µM"}, {"measurement": "TGI", "setting": "NCI-H226 lung", "result": "> 100", "unit": "µM"}, {"measurement": "TGI", "setting": "SNB-75 CNS", "result": "> 100", "unit": "µM"}]}, {"smiles": "CC(=O)OCc1c2ccccc2c(C)c2c1cc(F)c1ccccc12", "values": [{"measurement": "TGI", "setting": "SF-539 CNS", "result": 59.4, "unit": "µM"}, {"measurement": "TGI", "setting": "OVCAR-4 ovarian", "result": 77.9, "unit": "µM"}, {"measurement": "TGI", "setting": "SK-OV-3 ovarian", "result": "> 100", "unit": "µM"}, {"measurement": "TGI", "setting": "MALME-3M melanoma", "result": "> 100", "unit": "µM"}, {"measurement": "TGI", "setting": "HCC-2998 colon", "result": 72.3, "unit": "µM"}, {"measurement": "TGI", "setting": "786-0 renal", "result": 82.3, "unit": "µM"}, {"measurement": "TGI", "setting": "HT29 colon", "result": 42.4, "unit": "µM"}, {"measurement": "TGI", "setting": "NCI-H226 lung", "result": "> 100", "unit": "µM"}, {"measurement": "TGI", "setting": "SNB-75 CNS", "result": 58.4, "unit": "µM"}]}]}
